Test results as given in article PMC11898701, “Evaluating Therapeutic Efficacy of the Vascular Disrupting Agent OXi8007 Against Kidney Cancer in Mice” (Cancers, 2025).

How the values were obtained:
Type in all cases: in vivo, mouse
[1] = test system: orthotopic Renca-luc tumors; experiment: Long-term therapy with OXi8007 and/or cabozantinib
Experimental: (§1) OXi8007, synthesized by the Pinney Laboratory using published procedures, was dissolved in saline, verified to be in the pH range 7.3 to 7.5, and dosed at 250 mg/kg (IP). Cabozantinib (in PEG400 and ultrapure H2O (Milli-Q)) was administered at 3 mg/kg by oral gavage. Anti-PD-1 (10 mg/kg, Bio X Cell, Lebanon, NH, USA) and anti-CTLA-4 (5 mg/kg, Bio X Cell, Lebanon, NH) solutions were administered (IP) on the day before OXi8007 […].
We evaluated the longitudinal effects of OXi8007 alone and in combination with drugs currently favored for treating kidney cancer. For Renca-luc tumor-bearing mice, BLI was performed at least once a week to estimate tumor size, and mice were weighed weekly to adjust the dose as needed. Two treatment cohorts examined syngeneic orthotopic Renca-luc tumors in male BALB/c mice. Treatment started when the tumors reached about 1 × 10^6 photons/s peak total flux on BLI. The first cohort examined OXi8007 with cabozantinib. Mice were divided into four groups. Mice were assigned to groups as soon as there were sufficient to add the same numbers of animals to each group. The specific assignment was defined using the random number function in Excel. […] The second cohort was treated with CKIs and OXi8007 using four groups: Group 5 (OXi8007 + anti-PD-1 (10 mg/kg) + anti-CTLA-4 (5 mg/kg); n = 4), Group 6 (saline + anti-PD-1+ anti-CTLA-4; n = 3), Group 7 (saline + anti-PD-1; n = 3), and Group 8 (saline + anti-CTLA-4; n = 4). CKI antibodies were administered thrice weekly (M, W, F) for the first two weeks after the first treatment with OXi8007, which was administered twice weekly. […] Initial tumor growth was confirmed by palpation, and the mice were assigned to groups such that the first mouse with a confirmed tumor was assigned to Group 5, next to Group 6, etc., ensuring that all groups had both faster- and slower-growing tumors. […] Tumor size (BLI signal) and mouse body weights were compared using an ANOVA and multiple comparisons at a significance level of p < 0.05. Kaplan–Meier survival curves were compared using a non-parametric log-rank test using SAS software (SAS Institute Inc., SAS Viya for learners 4, Cary, NC, USA).

[2] = test system: orthotopic Renca-luc tumors; experiment: Acute response by dynamic bioluminescence imaging (BLI) and histology
Experimental: Anesthesia was induced with 1–3% isoflurane, and the mice were placed on the warmed imaging stage of an IVIS Spectrum® small animal imaging system (Xenogen/PerkinElmer Inc., Waltham, MA, USA) with continuous exposure to 1 to 2% isoflurane, as described previously. On successive occasions, mice were administered 75 µL of D-luciferin (sodium salt; Gold Biotechnology, St. Louis, MO, USA) SC in the fore back neck region as a 40 mg/mL solution in 0.9% saline. The BLI signal was quantified as the total flux using Living Image Software 4.3.7. Fresh luciferin was administered 4 and 24 h after drug administration to reveal acute changes in tumor perfusion.
Acute effects of OXi8007 were examined on Renca-luc tumor-bearing mice using BLI (n = 8) and MSOT (n = 6) by comparing images at the baseline [pre (0 h)] and following OXi8007 administration (IP) at 4 h and 24 h. Dynamic BLI images were acquired every minute over the course of 15–20 min immediately following luciferin injection. For MSOT, the same mice underwent a gas breathing challenge for 5 min in air (21% O2), 7 min in O2 (100% O2), followed by 3 min in air at 0 h, 4 h, and 24 h post-treatment.

[3] = test system: orthotopic XP258 human tumor xenografts; experiment: Long-term therapy of XP258 human tumor xenografts
Excerpt: The animal procedures were approved by the UT Southwestern Medical Center Institutional Animal Care and Use Committee under APNs 2017-102152 and 2018-102344-CORE. Renca-luc orthotopic tumors were induced by inserting tumor tissue (~1 mm^3) harvested from a donor mouse into the right kidney of syngeneic BALB/c mice (age 8 weeks, male and female; Envigo, Indianapolis, IN, USA), as described previously. Orthotopic XP258 tumors (derived from a patient with pT3aN0M1 clear cell RCC) were obtained from the UT Southwestern Kidney Cancer SPORE [53, 54] and maintained by serial passage. Tumors were induced by inserting tumor tissues from a donor tumor into the left kidney capsule of female NOD/SCID mice (Envigo).
as §1
We evaluated the longitudinal effects of OXi8007 alone and in combination with drugs currently favored for treating kidney cancer. For Renca-luc tumor-bearing mice, BLI was performed at least once a week to estimate tumor size, and mice were weighed weekly to adjust the dose as needed. Two treatment cohorts examined syngeneic orthotopic Renca-luc tumors in male BALB/c mice. Treatment started when the tumors reached about 1 × 10^6 photons/s peak total flux on BLI. The first cohort examined OXi8007 with cabozantinib. Mice were divided into four groups. Mice were assigned to groups as soon as there were sufficient to add the same numbers of animals to each group. The specific assignment was defined using the random number function in Excel. As such, each group included both faster- and slower-growing tumors. […]

COc1ccc2c(C(=O)c3cc(OC)c(OC)c(OC)c3)c(-c3ccc(OC)c(OP(=O)(O)O)c3)[nH]c2c1 [OXi8007]
Toxicity in adult mice ([1]; 250 mg/kg IP twice weekly up to 7 weeks): no overt toxicity
Body weight at week 7 versus baseline ([1]; Renca-luc BALB/c mice, 250 mg/kg IP twice weekly): significant loss in body weight
Body weight loss versus pre-treatment baseline ([1]; Renca-luc BALB/c mice, OXi8007 alone): ~ 11%
Tumor growth delay (BLI) ([1]; Renca-luc, versus control): no significant growth delay
Overall survival versus control ([1]; Renca-luc, 250 mg/kg IP twice weekly, log-rank p = 0.053): no overall survival benefit
BLI signal relative to baseline ([2]; 4 h after OXi8007 250 mg/kg IP, 8 mice): < 2 % baseline
Histology of tumor ([2]; Renca-luc, within 4 h post-treatment): extensive intratumoral hemorrhage
Vascular shutdown (BLI) ([2]; within 4 h, orthotopic kidney tumors): > 98%
Tumor weights at sacrifice ([3]; XP258, long-term therapy, monotherapy or combined): much smaller tumors
Survival versus controls ([3]; XP258 in NOD/SCID mice, OXi8007 250 mg/kg IP twice weekly, cabozantinib 3 mg/kg oral daily): significantly enhanced survival
